Assays:
Assay type in all cases: cell-based
Conditions in all cases: single active, 7 days after inoculation
Septoria tritici = assay: Microtest: activity against leaf blotch on wheat caused by Septoria tritici (MTP growth, 405 nm)
Description: (§1) The active compounds were formulated separately as a stock solution having a concentration of 10000 ppm in dimethyl sulfoxide.
(§2) The stock solutions were mixed according to the ratio, pipetted onto a micro titer plate (MTP) and diluted with water to the stated concentrations. A spore suspension of Septoria tritici in an aqueous biomalt or yeast-bactopeptone-glycerine or DOB solution was then added. The plates were placed in a water vapor-saturated chamber at a temperature of 18° C. Using an absorption photometer, the MTPs were measured at 405 nm 7 days after the inoculation.
(§3) The measured parameters were compared to the growth of the active compound-free control variant (100%) and the fungus-free blank value to determine the relative growth in % of the pathogens in the respective active compounds.
(§4) These percentages were converted into efficacies.
(§5) An efficacy of 0 means that the growth level of the pathogens corresponds to that of the untreated control; an efficacy of 100 means that the pathogens were not growing.
(§6) The expected efficacies of active compound mixtures were determined using Colby's formula [R. S. Colby, “Calculating synergistic and antagonistic responses of herbicide combinations”, Weeds 15, 20-22 (1967)] and compared with the observed efficacies.

Alternaria solani = assay: Microtest: activity against early blight caused by Alternaria solani (MTP growth, 405 nm)
Description: as §1, §3, §4
as §2, with “Alternaria solani” for “Septoria tritici”
as §5, §6

[1] = test system: Colletotrichum orbiculare; assay: Microtest: activity against anthracnose caused by Colletotrichum orbiculare (MTP growth, 405 nm)
Description: as §1, §3, §4
as §2, with “Colletotrichum orbiculare” for “Septoria tritici”, “bio malt” for “biomalt or yeast-bactopeptone-glycerine or DOB”
as §5, §6

Rhizoctonia solani = assay: Microtest: activity against Rhizoctonia solani (MTP growth, 405 nm)
Description: as §1
as §2, with “Rhizoctonia solani” for “Septoria tritici”, “COB” for “DOB”, “[…].” for “18° C.”
as §3, §4, §5, §6

Cercospora sojina = assay: Microtest: activity against Cercospora sojina (MTP growth, 405 nm)
Description: as §1
as §2, with “Cercospora sojina” for “Septoria tritici”, “COB” for “DOB”
as §3, §4, §5, §6

[2] = 0.25 ppm, 0 = growth as untreated control, 100 = no growth

Structure (SMILES): CC(O)(Cn1cncn1)c1ccc(Oc2ccc(Cl)cc2)cc1C(F)(F)F (stereo not drawn) [Mefentrifluconazol, mefentrifluconazole]
- Observed efficacy (Septoria tritici; 0 ppm (so in the source)): 68
- Observed efficacy (Septoria tritici; 0.063 ppm): 61
- Observed efficacy (Septoria tritici; [2]): 70

Structure (SMILES): Cc1nc2c(F)c(F)ccc2cc1Oc1cccc(F)c1C(C)(C)O [Ipflufenoquin, ipflufenoquin]
- Observed efficacy (Alternaria solani; 0.004 ppm): 9
- Observed efficacy ([1]; 0.25 ppm): 25

Structure (SMILES): Cn1cc(C(=O)Nc2ccccc2-c2cc(F)c(F)c(F)c2)c(C(F)F)n1 [Fluxapyroxad, fluxapyroxad]
- Observed efficacy (Rhizoctonia solani; 0.25 ppm): 46

Structure (SMILES): Cc1cc(C(F)(F)F)nn1CC(=O)N1CCC(c2nc(C3=NOC(c4c(F)cccc4F)C3)cs2)CC1 (stereo not drawn) [Oxathiapirolin, oxathiapiprolin]
- Observed efficacy (Alternaria solani; 0.063 ppm): 0

Structure (SMILES): O=C(NC1CCC1c1ccc(Cl)cc1Cl)c1cccnc1C(F)(F)F (stereo in doubt) [Cyclobutrifluram, cyclobutrifluram]
- Observed efficacy (Septoria tritici; 0.063 ppm): 0
- Observed efficacy (Septoria tritici; [2]): 7
- Observed efficacy (Alternaria solani; 0.004 ppm): 40
- Observed efficacy (Alternaria solani; 0.016 ppm): 74
- Observed efficacy (Rhizoctonia solani; 1 ppm): 0
- Observed efficacy (Cercospora sojina; 0.016 ppm): 18
- Observed efficacy ([1]; 1 ppm): 1

Structure (SMILES): CON(C(=O)c1cn(C)nc1C(F)F)C(C)Cc1c(Cl)cc(Cl)cc1Cl (stereo not drawn) [Pydiflumetofen, pydiflumetofen]
- Observed efficacy (Septoria tritici; 0.004 ppm): 5
- Observed efficacy (Septoria tritici; 0.016 ppm): 23
- Observed efficacy (Cercospora sojina; 0.00025 ppm): 9

Structure (SMILES): COCC(=O)N(c1c(C)cccc1C)[C@H](C)C(=O)OC [Mefenoxam, mefenoxam]
- Observed efficacy (Septoria tritici; 0.063 ppm): 6
- Observed efficacy (Septoria tritici; 1 ppm): 4
- Observed efficacy (Septoria tritici; 4 ppm): 2

Structure (SMILES): Cn1nnnc1/C(=N\OCc1cccc(NC(=O)OC(C)(C)C)n1)c1ccccc1 [Picarbutrazox, picarbutrazox]
- Observed efficacy (Alternaria solani; 0.063 ppm): 8
